# Measurements: patent publication US9321760B2 (Merck Patent GmbH, priority 2011, dated 2016)
# Biological target: P70S6K (T412E mutant) (Homo sapiens (Human), UniProt P23443, T412E)
# Test: P70S6K enzyme assay
# Type: biochemical
# Conditions: 3 nM P70S6K T412E mutant, 24 μM ATP, 1 μM FITC-AHA-AKRRRLSSLRA-OH substrate peptide, 90 min at 25° C.
# Description: The IC50 values reported for the compounds in the Experimental section were derived from the following protocol for the p70S6K enzyme assay.
# P70S6K inhibitor compounds were diluted and plated in 96 well plates. A reaction mixture including the following components was then added to the compound plate to initiate the enzyme reaction; P70S6K (3 nM, T412E mutant, Millipore) was mixed with 24 μM ATP in an assay buffer containing 100 mM Hepes (pH 7.5), 5 mM MgCl2, 1 mM DTT, 0.015% Brij and 1 μM of the substrate peptide FITC-AHA-AKRRRLSSLRA-OH (derived from the S6 ribosomal protein sequence, FITC=fluorescein isothiocyanate, AHA=6-aminohexanoic acid). The reaction was incubated for 90 min at 25° C., before the addition of 10 mM EDTA to stop the reaction. The proportion of substrate and product (phosphorylated) peptide was analysed on a Caliper Life Sciences Lab Chip 3000, using a pressure of −1.4 psi, and upstream and downstream voltages of −3000 and −700 respectively. Product peaks were resolved before substrate peaks on the resulting chromatograms.
# Chain of P70S6K (T412E mutant) (P23443 whole entry T412E): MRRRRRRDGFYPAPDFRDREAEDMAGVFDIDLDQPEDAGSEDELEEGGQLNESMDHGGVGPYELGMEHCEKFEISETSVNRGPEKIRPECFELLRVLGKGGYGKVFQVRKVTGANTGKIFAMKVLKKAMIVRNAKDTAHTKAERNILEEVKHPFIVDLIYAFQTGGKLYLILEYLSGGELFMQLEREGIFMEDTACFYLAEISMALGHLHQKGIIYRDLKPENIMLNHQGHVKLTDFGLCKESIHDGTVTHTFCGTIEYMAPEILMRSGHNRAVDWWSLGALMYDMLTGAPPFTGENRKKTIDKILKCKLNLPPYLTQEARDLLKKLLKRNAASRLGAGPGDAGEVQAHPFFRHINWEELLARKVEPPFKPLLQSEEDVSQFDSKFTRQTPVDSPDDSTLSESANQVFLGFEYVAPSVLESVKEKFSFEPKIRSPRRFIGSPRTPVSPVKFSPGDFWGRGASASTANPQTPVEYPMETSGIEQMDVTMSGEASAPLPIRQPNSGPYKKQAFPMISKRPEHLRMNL
row,SMILES,IC50 [nM]
1,"Nc1ncnc(N2CCN(C(CN3CCC3)c3ccc4c(c3)CCCC4)CC2)c1-c1ccc(N2CCNCC2)nc1 (stereo not shown) [Example 115, 6-{4-[2-Azetidin-1-yl-1-(5,6,7,8-tetrahydro-naphthalen-2-yl)-ethyl]-piperazin-1-yl}-5-(6-piperazin-1-yl-pyridin-3-yl)-pyrimidin-4-ylamine]",> 100000
2,"N#CC(c1ccc(Cl)c(Cl)c1)N1CCN(c2ncnc(N)c2-c2ccc(F)cc2)CC1 (stereo not shown) [Example 156, {4-[6-Amino-5-(4-fluoro-phenyl)-pyrimidin-4-yl]-piperazin-1-yl}-(3,4-dichloro-phenyl)-acetonitrile]",130
3,"Nc1ncnc(N2CCN(C(CN3CCCC3)c3cccc(C(F)(F)F)c3)CC2)c1Br (stereo not shown) [Example 69, 5-Bromo-6{4-[1-(3-trifluoromethyl-phenyl)-2-pyrrolidin-1-yl-ethyl]-piperazin-1-yl}-pyrimidin-4-ylamine]",> 1000
4,"Cn1ccc(-c2c(N)ncnc2N2CCN(C(CNC(C)(C)C(C)(C)O)c3ccc(C(F)(F)F)cc3)CC2)n1 (stereo not shown) [Example 44, 3-[2-{4-[6-Amino-5-(1-methyl-1H-pyrazol-3-yl)-pyrimidin-4-yl]-piperazin-1-yl}-2-(4-trifluoromethyl-phenyl)-ethylamino]-2,3-dimethyl-butan-2-ol]",150
5,"Nc1ncnc(N2CCN(C(CN3CCC3)c3ccc(C(F)(F)F)c(F)c3)CC2)c1-c1cn[nH]c1 (stereo not shown) [Example 127, 6-{4-[2-Azetidin-1-yl-1-(3-fluoro-4-trifluoromethyl-phenyl)-ethyl]-piperazin-1-yl}-5-(1H-pyrazol-4-yl)-pyrimidin-4-ylamine]",550
6,"COc1ccc([C@H](CCO)NC(=O)C2(N)CCN(c3ncnc(N)c3Cl)CC2)cc1 [Example 238, 4-Amino-1-(6-amino-5-chloro-pyrimidin-4-yl)-piperidine-4-carboxylic acid [(S)-3-hydroxy-1-(4-methoxy-phenyl)-propyl]-amide]",380
7,"Nc1ncnc(N2CCN(C(CN3CCC3)c3ccc4[nH]c(=O)sc4c3)CC2)c1-c1ccc(F)cc1 (stereo not shown) [Example 118, 6-(1-{4-[6-Amino-5-(4-fluoro-phenyl)-pyrimidin-4-yl]-piperazin-1-yl}-2-azetidin-1-yl-ethyl)-3H-benzothiazol-2-one]",140
8,"Nc1ncnc(N2CCN(C(CN3CCC3)c3ccc(-n4ccnc4)cc3)CC2)c1-c1ccc(F)cc1 (stereo not shown) [Example 116, 6-{4-[2-Azetidin-1-yl-1-(4-imidazol-1-yl-phenyl)-ethyl]-piperazin-1-yl}-5-(4-fluoro-phenyl)-pyrimidin-4-ylamine]",290
9,"Nc1ncnc(N2CCN(C(CN3CCC3)c3cccc(F)c3)CC2)c1-c1cn[nH]c1 (single isomer, unassigned) [Example 84, 6-{4-[2-Azetidin-1-yl-1-(3-fluoro-phenyl)-ethyl]-piperazin-1-yl}-5-(1H-pyrazol-4-yl)-pyrimidin-4-ylamine]",15000
10,Nc1ncnc(N2CCC(C(O)c3ccc(F)cc3)CC2)c1-c1ccc(F)cc1 (stereo not shown) [Example 140],4.6
11,"COc1ccc([C@H](CCO)NC(=O)C2(N)CCN(c3ncnc(N)c3C#N)CC2)cc1 [Example 229, 4-Amino-1-(6-amino-5-cyano-pyrimidin-4-yl)-piperidine-4-carboxylic acid [(S)-3-hydroxy-1-(4-methoxy-phenyl)-propyl]-amide]",450
12,"CN(C)C[C@H](c1ccc(C(F)(F)F)cc1)N1CCN(c2ncnc(N)c2-c2ccc(F)cc2)CC1 [Example 16, (S)-6-(4-(2-(dimethylamino)-1-(4-(trifluoromethyl)phenyl)ethyl)piperazin-1-yl)-5-(4-fluorophenyl)pyrimidin-4-amine]",4.9
13,"N#CC(c1ccc(Cl)c(F)c1)N1CCN(c2ncnc(N)c2-c2ccc(F)cc2)CC1 (stereo not shown) [Example 164, {4-[6-Amino-5-(4-fluoro-phenyl)-pyrimidin-4-yl]-piperazin-1-yl}-(4-chloro-3-fluoro-phenyl)-acetonitrile]",44
14,"N#Cc1c(N)ncnc1N1CCC(N)(C(=O)N[C@@H](CCO)c2ccc(Cl)cc2)CC1 [Example 242, 4-Amino-1-(6-amino-5-cyano-pyrimidin-4-yl)-piperidine-4-carboxylic acid [(S)-1-(4-chloro-phenyl)-3-hydroxy-propyl]-amide]",98
15,"CN(C)CC(c1ccc(C(F)(F)F)cc1)N1CCN(c2ncnc(N)c2-c2ccc(C(C)(C)O)cc2)CC1 (stereo not shown) [Example 22, 2-(4-(4-amino-6-(4-(2-(dimethylamino)-1-(4-(trifluoromethyl)phenyl)ethyl)-piperazin-1-yl)pyrimidin-5-yl)phenyl)propan-2-ol]",20
16,Nc1ncnc(N2CCC(C(O)c3ccc(-c4ccc(F)cc4)cc3)CC2)c1-c1ccc(F)cc1 (stereo not shown) [Example 139],17
17,"N#Cc1c(N)ncnc1N1CCC(N)(CNC(=O)c2ccc(F)cc2F)C1 (stereo not shown) [Example 196, N-[3-Amino-1-(6-amino-5-cyano-pyrimidin-4-yl)-pyrrolidin-3-ylmethyl]-2,4-difluoro-benzamide]",50

# Further compounds by falling IC50, results first:
row,IC50 [nM],SMILES
1,8700,"Nc1ncnc(N2CCN([C@H](CN3CCC3)c3cccc(F)c3)CC2)c1-c1cn[nH]c1 [Example 87, 6-{4-[(S)-2-Azetidin-1-yl-1-(3-fluoro-phenyl)-ethyl]-piperazin-1-yl}-5-(1H-pyrazol-4-yl)-pyrimidin-4-ylamine]"
2,3500,"COc1ccc(C(CN2CCC2)N2CCN(c3ncnc(N)c3-c3cn[nH]c3)CC2)cc1F (stereo not shown) [Example 95, 6-{4-[2-Azetidin-1-yl-1-(3-fluoro-4-methoxy-phenyl)-ethyl]-piperazin-1-yl}-5-(1H-pyrazol-4-yl)-pyrimidin-4-ylamine]"
3,3300,"Nc1ncnc(N2CCN(C(CN3CCC3)c3ccc(F)c(OC(F)(F)F)c3)CC2)c1-c1cn[nH]c1 (stereo not shown) [Example 114, 6-{4-[2-Azetidin-1-yl-1-(4-fluoro-3-trifluoromethoxy-phenyl)-ethyl]-piperazin-1-yl}-5-(1H-pyrazol-4-yl)-pyrimidin-4-ylamine]"
4,2700,"COC(=O)c1ccc([C@@H](CN2CCC2)N2CCN(c3ncnc(N)c3-c3cn[nH]c3)CC2)cc1 [Example 89, 4-((S)-1-{4-[6-Amino-5-(1H-pyrazol-4-yl)-pyrimidin-4-yl]-piperazin-1-yl}-2-azetidin-1-yl-ethyl)-benzoic acid methyl ester]"
5,610,"N#Cc1cccc([C@H](CN2CCC2)N2CCN(c3ncnc(N)c3-c3ccc(F)cc3)CC2)c1 [Example 129, 3-((R)-1-{4-[6-Amino-5-(4-fluoro-phenyl)-pyrimidin-4-yl]-piperazin-1-yl}-2-azetidin-1-yl-ethyl)-benzonitrile]"
6,31,"NCC(c1cccnc1)N1CCN(c2ncnc(N)c2-c2ccc(F)cc2)CC1 (stereo not shown) [Example 193, 6-[4-(2-Amino-1-pyridin-3-yl-ethyl)-piperazin-1-yl]-5-(4-fluoro-phenyl)-pyrimidin-4-ylamine]"
7,9.1,"Nc1ncnc(N2CCC(N)(CNC(=O)c3ccc(F)cc3F)C2)c1-c1ccc(C(F)(F)F)cc1 (stereo not shown) [Example 202, N-{3-Amino-1-[6-amino-5-(4-trifluoromethyl-phenyl)-pyrimidin-4-yl]-pyrrolidin-3-ylmethyl}-2,4-difluoro-benzamide]"
8,2.8,"NCC(c1ccc(C(F)(F)F)cc1)N1CCN(c2ncnc(N)c2-c2cn[nH]c2)CC1 (stereo not shown) [Example 7, 6-{4-[2-Amino-1-(4-trifluoromethyl-phenyl)-ethyl]-piperazin-1-yl}-5-(1H-pyrazol-4-yl)-pyrimidin-4-ylamine]"
